Measured values: patent publication US5576439A, “Dihydropyridinecarboxylic acid anhydrides” (Ciba-Geigy Corporation, priority 1994, dated 1996)
pIC50: −log10 of the molar value.

Columns and labels:
[1] = test system: increase in blood pressure induced by ET-1; assay: Effect on pressor response to ET-1 in the conscious rat; assay type: in vivo; conditions: 10 mg/Kg i.v., 5 minute pretreatment, ET-1 0.25 nmol/kg i.v.
Experimental: (§1) The cardiovascular effects of ET-1 inhibitory activity can be determined as follows:
(§2) A 30 minute pretreatment with test compound (0.1-10 μM) is utilized to determine inhibition of the ET-1 induced contractile response in isolated rabbit aorta. The maximal response to ET-1 is measured at 0.1, 1 and 10 μM, respectively. Similar pretreatment with test compound (1 μM) is utilized to determine the effects of phenylephrine or KCl induced contraction, an indication that the specificity of hemodynamic affects is caused by intereaction with the endothelin receptor. A 5 minute pretreatment with test compound (10 mg/kg, i.v.) is also used to assess the effects on pressor response and attenuation of the depressor response to ET-1 (0.25 nmol/kg iv.) in the conscious rat.

ETB receptor = molecular target: T1, ETB receptor (Rattus norvegicus, UniProt P21451); assay: Inhibition of [^125 I] ET-1 binding to rat cerebellum membranes
T1 construct: rat cerebellum membranes (ETB receptor); from tissue; host or cells: rat cerebellum membranes
T1 sequence (P21451 27-442): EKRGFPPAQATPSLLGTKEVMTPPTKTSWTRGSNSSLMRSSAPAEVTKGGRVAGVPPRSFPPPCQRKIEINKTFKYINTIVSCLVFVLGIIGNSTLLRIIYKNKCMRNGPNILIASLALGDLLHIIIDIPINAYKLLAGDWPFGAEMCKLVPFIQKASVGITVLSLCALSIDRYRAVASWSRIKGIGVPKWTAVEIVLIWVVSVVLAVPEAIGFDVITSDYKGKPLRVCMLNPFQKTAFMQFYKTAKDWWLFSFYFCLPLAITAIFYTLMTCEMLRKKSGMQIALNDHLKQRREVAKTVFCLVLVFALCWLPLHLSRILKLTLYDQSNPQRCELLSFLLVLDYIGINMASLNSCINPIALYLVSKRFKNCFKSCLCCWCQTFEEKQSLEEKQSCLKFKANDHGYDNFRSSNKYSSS
Experimental: (§3) Inhibition of the binding of [^125 I] ET-1 to porcine thoracic aorta membranes (ETA receptor) is determined according to Cioffi et al, J. Pharmacol. Exp. Ther. 262, 611 (1992); similarly inhibition of binding of [^125 I] ET-1 to rat cerebellum membranes (ETB receptor).

ETA receptor [2] = molecular target: T2, ETA receptor (Sus scrofa, UniProt Q29010); assay: Inhibition of [^125 I] ET-1 binding to porcine thoracic aorta membranes
T2 construct: porcine thoracic aorta membranes (ETA receptor); from tissue; host or cells: porcine thoracic aorta membranes
T2 sequence (Q29010 21-427): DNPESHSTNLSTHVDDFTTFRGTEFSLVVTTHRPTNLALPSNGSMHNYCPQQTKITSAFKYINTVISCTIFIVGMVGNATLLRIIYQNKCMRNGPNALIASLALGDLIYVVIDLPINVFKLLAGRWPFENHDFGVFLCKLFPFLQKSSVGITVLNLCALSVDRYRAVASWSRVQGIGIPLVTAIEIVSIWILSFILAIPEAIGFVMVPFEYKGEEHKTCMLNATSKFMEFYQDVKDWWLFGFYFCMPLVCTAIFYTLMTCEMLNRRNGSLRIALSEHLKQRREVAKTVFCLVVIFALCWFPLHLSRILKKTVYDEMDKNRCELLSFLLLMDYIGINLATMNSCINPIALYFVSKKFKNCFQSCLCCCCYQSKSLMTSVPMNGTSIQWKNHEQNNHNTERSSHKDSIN
Experimental: as §3

[3] = test system: ET-1 induced contractile response in isolated rabbit aorta; assay: Inhibition of ET-1 induced contractile response in isolated rabbit aorta; conditions: 10 μM, 30 minute pretreatment
Experimental: as §1, §2

ETA receptor [4] = molecular target: T3, ETA receptor (Rattus norvegicus, UniProt P26684); assay: ETA receptor inhibitory activity by release of [^3 H]-inositol from labeled A7r5 cells; assay type: cell-based
T3 construct: labeled A7r5 cells; endogenous in cells; host or cells: A7r5 cells
T3 sequence (P26684 21-426): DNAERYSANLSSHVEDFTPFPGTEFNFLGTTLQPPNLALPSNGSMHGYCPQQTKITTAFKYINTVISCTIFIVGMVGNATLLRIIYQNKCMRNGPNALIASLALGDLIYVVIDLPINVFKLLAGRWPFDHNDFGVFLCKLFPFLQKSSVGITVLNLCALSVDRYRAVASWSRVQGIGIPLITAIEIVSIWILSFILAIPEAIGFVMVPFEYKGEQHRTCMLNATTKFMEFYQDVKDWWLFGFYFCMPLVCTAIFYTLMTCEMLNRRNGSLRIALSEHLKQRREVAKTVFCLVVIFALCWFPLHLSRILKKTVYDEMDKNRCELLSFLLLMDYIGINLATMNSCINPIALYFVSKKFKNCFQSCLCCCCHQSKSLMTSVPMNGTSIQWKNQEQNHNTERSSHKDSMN
Description: For instance the ETA receptor inhibitory activity can be determined by measuring the release of [^3 H]-inositol from [^3 H]-inositol labeled A7r5 cells, as previously described by Cioffi et at, J. Cardiovasc. Pharmacol. 22 (Suppl. 8), S-168 (1993).

Question: Which “antagonism of increase in blood pressure induced by ET-1” value [1] does the source give for `COC(=O)C1=C(C)NC(C)=C(C(=O)OC(=O)C2=C(C)NC(C)=C(C(=O)OC)[C@@H]2c2cccc([N+](=O)[O-])c2)[C@@H]1c1cccc([N+](=O)[O-])c1` [Example 1, meso-1,4-dihydro-5-methoxycarbonyl-2,6-dimethyl-4-(3-nitrophenyl)-3-pyridine-carboxylic acid anhydride] here?
Answer: completely antagonizes

Question: And the pIC50 (ETB receptor)?
Answer: ~6.52

Question: And the pIC50 (ETA receptor [2])?
Answer: ~7.80

Question: And the “inhibition of ET-1 induced contractile response” value [3]?
Answer: 77%

Question: And the pIC50 (ETA receptor [4])?
Answer: ~6.85
